Columns and labels:
[1] = test system: human colorectal carcinoma cell line HCT116; assay: In vivo inhibition of cancer cell proliferation in the mouse by intraperitoneal administration (HCT116 transplant); design: species or system Balb/c nude mice; details: 30 mg/kg intraperitoneal; for Weight changes over the administration time: nude mice
Description: First, female Balb/c nude mice (6 weeks old) were administered with the compound prepared in Example 2 via intraperitoneal injection. […] One week later, any change in the tumor size was observed by comparing the volume of the first formed tumor and the volume measured one week after. On the last day, the tumor was weighed. […] All the values of each measurement title were examined by t-test to investigate the statistical significance of the values obtained from the non-treated group, the group treated with the compound of Example 2, and the positive control group.

B16F10 melanoma cells = assay: Inhibition of metastasis in vivo in the test mouse (luciferase imaging); design: species or system C57BL/6 mice; details: for Weight changes over the administration time: C57BL/6 mice
Description: To evaluate the inhibition effect of the compound on metastasis, C57BL/6 mice were transplanted with B16F10 melanoma cells (2×10^6 cells/ml) expressing luciferase via intravenous injection (0.2 ml, 4×10^5 cells/mouse). One hour later, 50 μl of luciferin was administered to each mouse at the concentration of 15 mg/ml via intraperitoneal injection. Then, the compound prepared in Example 2 of the invention was intraperitoneally administered at the concentration of 50 mg/kg 13 times. […] The image of the mouse was photographed every day for 14 days with a live animal imaging system (PHOTON IMAGER, Biospace). On the last day of the experiment, the mouse was sacrificed by using CO2 gas. The lung was extracted from the mouse, and lung metastasis of the skin cancer cells was confirmed. To investigate toxicity, weight and other general symptoms were observed during the experimental period. At this time, all the values of each measurement title were examined by t-test for the statistical significance of the values obtained from the non-treated group, the group treated with the compound of Example 2, and the positive control group. The results are shown in Table 3, Table 4, FIG. 9, and FIG. 10.

- Weight changes over the administration time (B16F10 melanoma cells; 0 day): 100.0 ± 0.0%
- Weight changes over the administration time (B16F10 melanoma cells; 2 days): 100.9 ± 2.2%
- Weight changes over the administration time (B16F10 melanoma cells; 4 days): 102.9 ± 2.0%
- Weight changes over the administration time (B16F10 melanoma cells; 7 days): 103.0 ± 2.8%
- Weight changes over the administration time (B16F10 melanoma cells; 9 days): 106.0 ± 3.1%
- Weight changes over the administration time (B16F10 melanoma cells; 11 days): 105.4 ± 2.9%
- Weight changes over the administration time (B16F10 melanoma cells; 14 days): 107.7 ± 3.3%
SMILES: CCN(CC)CCNC(=O)c1c(C)[nH]c(/C=C2\C(=O)Nc3ccc(F)cc32)c1C [sunitinib]
- Inhibition rate of tumor growth (tumor volume) ([1]; 0 day): (0%)
- Tumor volume over the administration time (Vt − Vo) ([1]; 0 day): 0.0 ± 0.0
- Weight changes over the administration time ([1]; 0 day): 100.0 ± 0.0%
- Inhibition rate of tumor growth (tumor volume) ([1]; 2 days): (31.7%)
- Weight changes over the administration time ([1]; 2 days): 100.5 ± 1.4%
- Weight changes over the administration time ([1]; 4 days): 100.7 ± 2.0%
- Tumor weight at final day ([1]; 7 days): 1064.9 ± 130.9 mg
- Weight changes over the administration time ([1]; 7 days): 100.8 ± 3.3%
- Image signals over the administration time (B16F10 melanoma cells; 0 day, live animal imaging): 857.2 ± 679.3 photons/s/sr
- Image signals over the administration time (B16F10 melanoma cells; 4 days, live animal imaging, Example 2 50 mg/kg, sunitinib 30 mg/kg): 222.0 ± 146.1 photons/s/sr
- Inhibition rate of tumor metastasis (image signals) (B16F10 melanoma cells; 9 days, live animal imaging): (19.9%)
- Image signals over the administration time (B16F10 melanoma cells; 9 days, live animal imaging, Example 2 50 mg/kg, sunitinib 30 mg/kg): 47.5 ± 10.7 photons/s/sr
- Image signal at final day (B16F10 melanoma cells; 14 days, extracted lung imaging, Example 2 50 mg/kg, sunitinib 30 mg/kg): 21738.7 ± 14939.0
- Image signals over the administration time (B16F10 melanoma cells; 14 days, live animal imaging, Example 2 50 mg/kg, sunitinib 30 mg/kg): 13084.0 ± 8931.2 photons/s/sr

Source: patent US9447063B2, “Disubstituted adamantyl derivative or pharmaceutically acceptable salt thereof, production method for same, and pharmaceutical composition for suppressing cancer metastasis comprising same as active ingredient” (KOREA RESEARCH INSTITUTE OF BIOSCIENCE AND BIOTECHNOLOGY, priority 2012, dated 2016)
